In publication PMC12524789, “The Interplay Between CB2 and NMDA Receptors in Parkinson’s Disease” (International Journal of Molecular Sciences, 2025):

Target: T1, cannabinoid receptor 2 (CB2R) (Homo sapiens, UniProt P34972)
T1 construct: gene CNR2; SNAP-tagged human CB2R in HEK-293T cells
Assay: HTRF competition binding against […] fluorophore-conjugated CM157 in HEK-293T cells; also cAMP and β-arrestin II recruitment
Format: cell-based

T1 sequence (P34972 whole entry): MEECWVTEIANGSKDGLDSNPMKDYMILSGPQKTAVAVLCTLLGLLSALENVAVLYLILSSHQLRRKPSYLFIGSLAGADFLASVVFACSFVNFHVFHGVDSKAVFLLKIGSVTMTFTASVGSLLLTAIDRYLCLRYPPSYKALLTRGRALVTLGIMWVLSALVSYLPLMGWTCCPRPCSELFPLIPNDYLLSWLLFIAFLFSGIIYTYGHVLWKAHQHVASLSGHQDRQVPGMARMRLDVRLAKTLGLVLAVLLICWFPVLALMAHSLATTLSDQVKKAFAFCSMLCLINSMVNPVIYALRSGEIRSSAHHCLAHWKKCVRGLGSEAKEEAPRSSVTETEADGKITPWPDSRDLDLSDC

CCCC(C)(C)c1ccc2c(c1)OC(C)(C)[C@@H]1CC=C(C)C[C@@H]21 [JWH-133]
Ki: 18 nM
